{"source": "patent US20140314791A1", "about": "“METHODS OF TREATING CANCER” (DANA-FARBER CANCER INSTITUTE, INC., priority 2012, published 2014)", "key": {"[1]": {"system": "Lkb1-null t2, t4, and t5 cells", "experiment": "dTTP rescue of shDtymk growth phenotype", "type": "cell-based, mouse", "conditions": "without additional dTTP, 3 days", "procedure": "(B) Morphology of Lkb1-null t2, t4, and t5 cells transduced with shGFP or shDtymk-1 and then cultured with or without additional 150 μM dTTP in medium for 3 days.\nNext it was determined whether adding dTTP to the media could rescue cell death after Dtymk knockdown. Three Lkb1-null cell lines were transduced with shGFP or shDtymk-1 and then selectively cultured in puromycin medium in the presence or absence of 150 μM dTTP for 3 days (Taricani et al., 2010). […] Expression of DTYMK in the shDtymk-1 cells was not determined because the remaining cells were too few for RNA and protein extraction (FIG. 4B)."}, "[2]": {"system": "Lkb1-null versus Lkb1-wt cell lines", "experiment": "Large-scale pooled shRNA library screening (murine 40K pool)", "type": "cell-based, mouse"}, "[3]": {"system": "Lkb1-wt (634, 855, and 857) and Lkb1-null (t2, t4, and t5) cells", "experiment": "Proliferation assay of shRNA-transduced cells (CellTiter-Glo)", "type": "cell-based, mouse", "conditions": "in vitro, puromycin 3 μg/ml", "procedure": "Viable cells were measured daily using Promega's CellTiter-Glo Assay. Two independent sets of transductions into the 6 cell lines were shown: the first set used shGFP, shDtymk-1, and shChek1-4 (upper panels), and the second set used shGFP, shDtymk-3, and shChek1-1 (lower panels).\nLentiviral production and target cell transduction were performed according to previously description (Moffat et al., 2006). Briefly, 293T cells were co-transfected with pLenti-vector, pCMV-dR8.74psPAX2, and pMD2.G using TransIT-LT1 transfection reagent (Mirus). Thirty-six h after transfection, the supernatant was harvested and spun at 3000 rpm/4° C. for 10 min, and then incubated with target cells in the presence of 8 μg/ml polybrene (Sigma) for 24 h. Two days after infection, the cells were collected for further analysis as indicated in the presence of 3 μg/ml Puromycin (Invitrogen).\nCells were plated into 96-well plates at 2000 cells per well in 100 μl, with addition of puromycin at 3 μg/ml for shRNA lentivirus infected cells, or with addition of variable doses of drug for drug treatment effects. Viable cells were measured daily or for a period of up to 3 days either by CellTiter-Glo Luminescent Cell Viability Assay (Promega) or by Cell Counting Kit-8 (CCK-8) (Dojindo) according to the manufacturer's instructions. All proliferation assays were performed in triplicate wells.\nDepletion of DTYMK and CHEK1 was confirmed by Western blot (FIG. 11B)."}, "Lkb1-null cells": {"system": "Lkb1-null cells", "experiment": "Array-based viral infection and cell proliferation assay (validation), Lkb1-null", "design": "species or system mouse", "procedure": "(C) Validation study. Relative viability of Lkb1-wt and Lkb1-null cells infected with 340 individual hairpins for 5 days. Genes of interest are highlighted by the colors indicated.\nFor array-based viral infection and assessment of proliferation, 2.5 μl virus was mixed with 250 cells in 100 μl medium containing 8 μg/ml polybrene per well in 96-well plates. The plates were spun at 2250 rpm/37° C. for 30 min. Immediately after spinning, supernatants were gently aspirated off and 100 μl fresh medium was added to each well of the 96-well plates. After 2 days incubation, medium was gently aspirated off and 100 fresh medium containing 3 μg/ml puromycin was added to each well of the 96-well plates. The plates were back to culture for additional 3 days and then the viable cells were monitored by alamarBlue (Invitrogen) assay according to manufacturer's instructions.\nTo identify Lkb1-null-selective essential genes, a synthetic lethal screen was performed using a pooled 40K murine shRNA lentiviral library for each of the Lkb1-wt and Lkb1-null cell lines described above. Relative abundance of shRNAs in each cell line sample was determined by deep-sequencing analysis, and for every shRNA, a log 2 Fold Change (log 2FC) value was calculated from the difference in relative abundance at a late time point after infection versus the initial shRNA-infected sample. An unsupervised hierarchical clustering analysis of the ranked hairpins from the triplicate pooled shRNA library screens of Lkb1-wt and Lkb1-null mouse cancer cells is shown in FIG. 1A. […] The ranked hairpins were collapsed by using two methods, a RIGER analysis (KS t-test based statistics) and a weighted second best analysis to rank genes that selectively impaired proliferation/viability in Lkb1-null cells. A union of 344 genes, identified by the top 100 individual hairpins for 88 genes (Table 1) and the top 200 genes from both the KS (Table 2) and weighted second best (Table 3), was nominated as the initial prioritized list (FIG. 1B). 340 shRNAs, targeting 70 candidate genes from this prioritized list, were chosen for validation (Table 4). The 70 genes consisted of the top 10 candidates from the KS analysis, as well as 60 others involved in a range of biological processes in an attempt to represent all biological categories in the validation process. Validation was performed in an array format with an assay of relatively short duration (5 days post infection) compared to the primary pooled screen (28 days), which should be a more stringent selection, as it required the anti-proliferative effects to manifest in a short time period. […] Dtymk, Check1, and Pdhb are the top 3 candidate genes, each with 3 hairpins that scored in the validation assay (FIG. 1C)."}, "Lkb1-wt cells": {"system": "Lkb1-wt cells", "experiment": "IdU pulse-labeling after Dtymk knockdown, Lkb1-wt", "type": "cell-based, mouse", "conditions": "for proportion of cells labeled with IdU: mean", "procedure": "(E) Lkb1-wt and Lkb1-null cells in 6-well plates were transduced with shDtymk-1 or shGFP. Two sets of the cells were plated into multiple chamber slides: one was 2 days and the other was 3 days post transduction. After overnight culturing, the cells were labeled with 100 μM IdU for 20 min then fixed for indirect immunofluorescence staining with anti-BrdU. The data represent mean±SD for 200˜300 cells. Representative merged images of BrdU (red) and DAPI (blue) in the indicated cells are shown (F).\nThe lower expression of DTYMK in Lkb1-null cells causes the cells to be in jeopardy of DNA damage. To investigate how further knockdown of Dtymk and the consequent decrease in the dTTP pool could affect DNA metabolism, IdU pulse-labeling in Lkb1-wt and Lkb1-null cells was performed 2.5 and 3.5 days post-transduction with shDtymk-1. […] The representative images of Lkb1-wt and Lkb1-null cells co-stained for IdU and DAPI are shown (FIG. 5F). In addition, an overall lower proportion of labeled Lkb1-null than Lkb1-wt cells (43.1% vs. 57.7%) was observed, which may be related to the lower dNTP levels in Lkb1-null cells."}}, "data": [{"substance": "shDtymk-1: shRNA hairpin CAAGCTTCTGAATTCCTACTT targeting Mouse Dtymk", "values": [{"measurement": "growth of shDtymk-transduced Lkb1-null cells", "setting": "[1]", "value": "grew poorly"}, {"measurement": "Hairpin-rank in pooled shRNA screen", "setting": "[2]; Table 6", "value": 27050}, {"measurement": "NES", "setting": "[2]; gene-level normalized enrichment score over all hairpins of the gene", "value": 1.540}, {"measurement": "Gene rank", "setting": "[2]; gene-level rank by NES", "value": 91}, {"measurement": "# HP 500", "setting": "[2]; number of the gene's hairpins ranked within top 500", "value": 1}, {"measurement": "# HP 1000", "setting": "[2]; number of the gene's hairpins ranked within top 1000", "value": 1}, {"measurement": "# HP 5000", "setting": "[2]; number of the gene's hairpins ranked within top 5000", "value": 1}, {"measurement": "# HP 10000", "setting": "[2]; number of the gene's hairpins ranked within top 10000", "value": 2}, {"measurement": "cell growth compared to shGFP control, Lkb1-null versus Lkb1-wt", "setting": "[3]", "value": "inhibition was stronger in Lkb1-null cells"}, {"measurement": "Growth of Lkb1-wt/Lkb1-null in array-based validation", "setting": "Lkb1-null cells; Table 6", "value": 4.16}, {"measurement": "Null ave-GR", "setting": "Lkb1-null cells; validation, 5 days post infection, alamarBlue", "value": 0.13}, {"measurement": "proportion of cells labeled with IdU", "setting": "Lkb1-wt cells; day 2.5 post infection", "value": 46.3, "unit": "%"}, {"measurement": "proportion of cells labeled with IdU", "setting": "Lkb1-wt cells; day 3.5 post infection", "value": 22.3, "unit": "%"}, {"measurement": "drop of proportion of IdU-labeled cells", "setting": "Lkb1-wt cells; in 3.5 days", "value": 61.2, "unit": "%"}]}]}
